Source: PubChem BioAssay AID602206 (Sanford-Burnham Center for Chemical Genomics, 2012)
The source made the active and inactive calls. How the calls were made is not given here.

These compounds were tested against Bcl-2-related protein A1 (Mus musculus) (UniProt Q07440) (assay: off-target activity on mouse Bfl-1 – biochemical, set 3, counter-screen for UBC13 polyubiquitination inhibitor project, SAR follow-up (AID 602206)). Details: Bfl-1 / peptide binding counterscreen, TR-FRET.
Chain of Bcl-2-related protein A1 (Mus musculus) (Q07440 whole entry, looked up): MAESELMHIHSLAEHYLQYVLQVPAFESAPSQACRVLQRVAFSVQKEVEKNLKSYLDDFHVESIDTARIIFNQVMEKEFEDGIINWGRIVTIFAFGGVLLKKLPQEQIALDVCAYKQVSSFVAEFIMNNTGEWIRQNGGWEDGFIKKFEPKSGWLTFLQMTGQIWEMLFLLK

| Compound | IC50 |
| --- | --- |
| Cc1ccc(NC(=O)C2CCN(c3ncnc4c3nc3n4CCCCC3)CC2)c(Cl)c1 | > 100 µM (inactive) |
| COc1ccc(Cl)cc1NC(=O)C1CCN(c2ncnc3c2nc2n3CCCCC2)CC1 | > 100 µM (inactive) |
| CCOc1ccc(CCNC(=O)CCCCCN2C(=O)c3ccccc3C2=O)cc1OCC | > 100 µM (inactive) |
| COc1cc(OC)c(NC(=O)C2CCN(c3ncnc4c3nc3n4CCCCC3)CC2)cc1Cl | > 100 µM (inactive) |
| Cc1ccc(NC(=O)C2CCN(c3ncnc4c3nc3n4CCCCC3)CC2)cc1C | > 100 µM (inactive) |
| Cc1ccc(NC(=O)C2CCN(c3ncnc4c3nc3n4CCCCC3)CC2)cc1F | > 100 µM (inactive) |
| O=C(Nc1cccc(Cl)c1)C1CCN(c2ncnc3c2nc2n3CCCCC2)CC1 | > 100 µM (inactive) |
| O=C(Nc1ccc(CN2CCCCC2)cc1)C1CCN(c2ncnc3c2nc2n3CCCCC2)CC1 | > 100 µM (inactive) |
| COc1ccc(NC(=O)C2CCN(c3ncnc4c3nc3n4CCCCC3)CC2)cc1Cl | > 100 µM (inactive) |

Continued, values first:

| IC50 | Compound |
| --- | --- |
| > 100 µM (inactive) | Cc1ccc(Cl)cc1N1CCN(c2ncnc3c2nc2n3CCCC2)CC1 |
| > 100 µM (inactive) | COc1cc(Cl)c(C)cc1NC(=O)C1CCN(c2ncnc3c2nc2n3CCCCC2)CC1 |
| > 100 µM (inactive) | c1ccc(CN2CCN(c3ncnc4c3nc3n4CCCC3)CC2)cc1 |
| > 100 µM (inactive) | O=C(CCCCCN1C(=O)c2ccccc2C1=O)NCCc1ccccc1 |
| > 100 µM (inactive) | c1nc(N2CCC(N3CCCCC3)CC2)c2nc3n(c2n1)CCCC3 |
| > 100 µM (inactive) | Cc1cc(Cl)ccc1NC(=O)C1CCN(c2ncnc3c2nc2n3CCCCC2)CC1 |
| > 100 µM (inactive) | Fc1ccccc1N1CCN(c2ncnc3c2nc2n3CCCC2)CC1 |
| > 100 µM (inactive) | CC1CN(S(=O)(=O)c2ccc(NC(=O)CCCCCN3C(=O)c4ccccc4C3=O)cc2)CC(C)O1 (centres undefined) |
| > 100 µM (inactive) | Cc1c(Cl)cccc1NC(=O)C1CCN(c2ncnc3c2nc2n3CCCCC2)CC1 |
| > 100 µM (inactive) | O=C(Nc1cc(F)ccc1F)C1CCN(c2ncnc3c2nc2n3CCCCC2)CC1 |
